Like-named read-outs stand apart in the source and are kept apart here.
Legend:
Experiment in all cases: NCI one-dose SRB anti-proliferative screen
Type in all cases: cell-based
SN12C = conditions: Homo sapiens, read-out: Cell growth inhibition %
In short: (§1)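 The selected hybrids underwent one-dose evaluation at 10 µM. Cellular growth was estimated by colorimetric detection of bound sulforhodamine B. Lines came from a sixty-member panel representing nine tumour types.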

HL-60(TB) = conditions: Homo sapiens, read-out: Cell growth inhibition %
In short: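 Activity reflects a single-point exposure at 10 µM, with cell mass determined by a sulforhodamine B dye assay.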

SF-539 = conditions: Homo sapiens, read-out: Cell growth inhibition %
In short: as §1

UACC-62 = conditions: Homo sapiens, read-out: Cell growth inhibition %
In short: as §1

NCI-H23 = conditions: Homo sapiens, read-out: Cell growth inhibition %
In short: as §1

TK-10 = conditions: Homo sapiens, read-out: Cell growth inhibition %
In short: as §1

HCT-15 = conditions: Homo sapiens, read-out: Cell growth inhibition %
In short: as §1

NCI-H226 = conditions: Homo sapiens, read-out: Cell growth inhibition %
In short: as §1

NCI/ADR-RES = conditions: Homo sapiens, read-out: Cell growth inhibition %
In short: as §1

SK-MEL-2 = conditions: Homo sapiens, read-out: Cell growth inhibition %
In short: as §1

BT-549 = conditions: Homo sapiens, read-out: Cell growth inhibition %
In short: as §1

786-0 = conditions: Homo sapiens, read-out: Cell growth inhibition %
In short: as §1

MDA-MB-231/ATCC = conditions: Homo sapiens, read-out: Cell growth inhibition %
In short: as §1

OVCAR-5 = conditions: Homo sapiens, read-out: Cell growth inhibition %
In short: as §1

PC-3 = conditions: Homo sapiens, read-out: Cell growth inhibition %
In short: as §1

LOX IMVI = conditions: Homo sapiens; for inhibition at 10 µM: read-out: Cell growth inhibition %; for activity at 10 µM: LOX IMVI (Melanoma), 10 µM one dose, read-out: Growth Percent
In short: as §1

OVCAR-8 = conditions: Homo sapiens, read-out: Cell growth inhibition %
In short: as §1

MALME-3M = conditions: Homo sapiens, read-out: Cell growth inhibition %
In short: as §1

MDA-MB-435 = conditions: Homo sapiens, read-out: Cell growth inhibition %
In short: as §1

A549/ATCC = conditions: Homo sapiens, read-out: Cell growth inhibition %
In short: as §1

UO-31 = conditions: Homo sapiens, read-out: Cell growth inhibition %
In short: as §1

SK-MEL-28 = conditions: Homo sapiens, read-out: Cell growth inhibition %
In short: as §1

A498 = conditions: Homo sapiens, read-out: Cell growth inhibition %
In short: as §1

U251 = conditions: Homo sapiens, U-251, read-out: Cell growth inhibition %
In short: as §1

OVCAR-3 = conditions: Homo sapiens, read-out: Cell growth inhibition %
In short: as §1

SR = conditions: Homo sapiens, read-out: Cell growth inhibition %
In short: as §1

NCI-H322M = conditions: Homo sapiens, read-out: Cell growth inhibition %
In short: as §1

NCI-H522 = conditions: Homo sapiens, read-out: Cell growth inhibition %
In short: as §1

ACHN = conditions: Homo sapiens, read-out: Cell growth inhibition %
In short: as §1

M14 = conditions: Homo sapiens, read-out: Cell growth inhibition %
In short: as §1

OVCAR-4 = conditions: Homo sapiens, read-out: Cell growth inhibition %
In short: as §1

Work on `COc1ccc(/C=C/C(=O)c2ccc(NC(=O)CSc3nnc(-c4ccc5[nH]c(-c6ccc(Cl)cc6)nc5c4)o3)cc2)cc1` [Compound 7h, 2-{5-[2-(4-Chlorophenyl)-1 H-benzo[d]imidazol-5-yl]-1,3,4-oxadiazol-2-ylthio}-N-{4-[(E)-3-(4-methoxyphenyl)acryloyl]phenyl}acetamide] yielded an inhibition at 10 µM (SN12C; SN 12C (Renal Cancer), NCI one dose 10 µM) of 6.65%, an inhibition at 10 µM (HL-60(TB); HL-60(TB) (Leukemia), NCI one dose 10 µM) of 21.4% and an inhibition at 10 µM (SF-539; SF-539 (CNS Cancer), NCI one dose 10 µM) of 5.67%. It also gave an inhibition at 10 µM (UACC-62; UACC-62 (Melanoma), NCI one dose 10 µM) of 16.2%, an inhibition at 10 µM (NCI-H23; NCI-H23 (Non-Small Cell Lung Cancer), NCI one dose 10 µM) of 6% and an inhibition at 10 µM (TK-10; TK-10 (Renal Cancer), NCI one dose 10 µM) of 0%. The inhibition at 10 µM (HCT-15; HCT-15 (Colon Cancer), NCI one dose 10 µM) was 5.06%, the inhibition at 10 µM (NCI-H226; NCI-H226 (Non-Small Cell Lung Cancer), NCI one dose 10 µM) was 12.4% and the inhibition at 10 µM (NCI/ADR-RES; NCI/ADR-RES (Ovarian Cancer), NCI one dose 10 µM) was 0%. The inhibition at 10 µM (SK-MEL-2; SK-MEL-2 (Melanoma), NCI one dose 10 µM) was 0%, the inhibition at 10 µM (BT-549; BT-549 (Breast Cancer), NCI one dose 10 µM) was 15% and the inhibition at 10 µM (786-0; 786-0 (Renal Cancer), NCI one dose 10 µM) was 0.41%. For the same molecule, the inhibition at 10 µM (MDA-MB-231/ATCC; MDA-MB-231/ATCC (Breast Cancer), NCI one dose 10 µM) was 1.61%, the inhibition at 10 µM (OVCAR-5; OVCAR-5 (Ovarian Cancer), NCI one dose 10 µM) was 0% and the inhibition at 10 µM (PC-3; PC-3 (Prostate Cancer), NCI one dose 10 µM) was 17.5%. It also gave an inhibition at 10 µM (LOX IMVI; LOX IMIV (Melanoma), NCI one dose 10 µM) of 93.2%, an activity at 10 µM (LOX IMVI) of -32 to 18% and an inhibition at 10 µM (OVCAR-8; OVCAR-8 (Ovarian Cancer), NCI one dose 10 µM) of 20.5%. The inhibition at 10 µM (MALME-3M; MALME-3M (Melanoma), NCI one dose 10 µM) was 6.52%, the inhibition at 10 µM (MDA-MB-435; MDA-MB-435 (Melanoma), NCI one dose 10 µM) was 1.94% and the inhibition at 10 µM (A549/ATCC; A549/ATCC (Non-Small Cell Lung Cancer), NCI one dose 10 µM) was 0%. The inhibition at 10 µM (UO-31; UO-31 (Renal Cancer), NCI one dose 10 µM) was 12.5%, the inhibition at 10 µM (SK-MEL-28; SK-MEL-28 (Melanoma), NCI one dose 10 µM) was 0% and the inhibition at 10 µM (A498; A498 (Renal Cancer), NCI one dose 10 µM) was 0%. It also gave an inhibition at 10 µM (U251; U251 (CNS Cancer), NCI one dose 10 µM) of 3.98%, an inhibition at 10 µM (OVCAR-3; OVCAR-3 (Ovarian Cancer), NCI one dose 10 µM) of 0% and an inhibition at 10 µM (SR; SR (Leukemia), NCI one dose 10 µM) of 19.5%. It also gave an inhibition at 10 µM (NCI-H322M; NCI-H322M (Non-Small Cell Lung Cancer), NCI one dose 10 µM) of 0%, an inhibition at 10 µM (NCI-H522; NCI-H522 (Non-Small Cell Lung Cancer), NCI one dose 10 µM) of 20.9% and an inhibition at 10 µM (ACHN; ACHN (Renal Cancer), NCI one dose 10 µM) of 0%. The inhibition at 10 µM (M14; M14 (Melanoma), NCI one dose 10 µM) was 0% and the inhibition at 10 µM (OVCAR-4; OVCAR-4 (Ovarian Cancer), NCI one dose 10 µM) was 0%.
With `COc1ccc(-c2nc3cc(-c4nnc(SCC(=O)Nc5ccc(C(=O)/C=C/c6ccc(Cl)cc6)cc5)o4)ccc3[nH]2)cc1` [Compound 7l, 2-{5-[2-(4-Methoxyphenyl)-1 H-benzo[d]imidazol-5-yl]-1,3,4-oxadiazol-2-ylthio}-N-{4-[(E)-3-(4-chlorophenyl)acryloyl]phenyl}acetamide] the inhibition at 10 µM (SN12C; SN 12C, Renal cancer, NCI one dose) was 11.7%, the inhibition at 10 µM (HL-60(TB); HL-60(TB), Leukemia, NCI one dose) was 5.86% and the inhibition at 10 µM (SF-539; SF-539, CNS Cancer, NCI one dose) was 12.9%. The inhibition at 10 µM (UACC-62; UACC-62, Melanoma, NCI one dose) was 6.01%, the inhibition at 10 µM (NCI-H23; NCI-H23, Non-Small Cell Lung Cancer, NCI one dose) was 5.55% and the inhibition at 10 µM (TK-10; TK-10, Renal cancer, NCI one dose) was 0%. The inhibition at 10 µM (HCT-15; HCT-15, Colon cancer, NCI one dose) was 13.9%, the inhibition at 10 µM (NCI-H226; NCI-H226, Non-Small Cell Lung Cancer, NCI one dose) was 5.85% and the inhibition at 10 µM (NCI/ADR-RES; NCI/ADR-RES, Ovarian Cancer, NCI one dose) was 0%. For the same molecule, the inhibition at 10 µM (SK-MEL-2; SK-MEL-2, Melanoma, NCI one dose) was 0%, the inhibition at 10 µM (BT-549; BT-549, Breast cancer, NCI one dose) was 1.84% and the inhibition at 10 µM (786-0; 786-0, Renal cancer, NCI one dose) was 0.91%. It also gave an inhibition at 10 µM (MDA-MB-231/ATCC; MDA-MB-231/ATCC, Breast cancer, NCI one dose) of 5.19%, an inhibition at 10 µM (OVCAR-5; OVCAR-5, Ovarian Cancer, NCI one dose) of 0.55% and an inhibition at 10 µM (PC-3; PC-3, Prostate Cancer, NCI one dose) of 5.06%. For the same molecule, the activity at 10 µM (LOX IMVI) was -29.9%, the inhibition at 10 µM (LOX IMVI; Melanoma, NCI one dose) was 130% and the inhibition at 10 µM (OVCAR-8; OVCAR-8, Ovarian Cancer, NCI one dose) was 0%. The inhibition at 10 µM (MALME-3M; MALME-3M, Melanoma, NCI one dose) was 3.9%, the inhibition at 10 µM (MDA-MB-435; MDA-MB-435, Melanoma, NCI one dose) was 0.7% and the inhibition at 10 µM (A549/ATCC; A549/ATCC, Non-Small Cell Lung Cancer, NCI one dose) was 0%. The inhibition at 10 µM (UO-31; UO-31, Renal cancer, NCI one dose) was 14.7%, the inhibition at 10 µM (SK-MEL-28; SK-MEL-28, Melanoma, NCI one dose) was 0% and the inhibition at 10 µM (A498; A498, Renal cancer, NCI one dose) was 15.7%. The inhibition at 10 µM (U251; U251, CNS Cancer, NCI one dose) was 5.67%, the inhibition at 10 µM (OVCAR-3; OVCAR-3, Ovarian Cancer, NCI one dose) was 0% and the inhibition at 10 µM (SR; SR, Leukemia, NCI one dose) was 31.8%. The inhibition at 10 µM (NCI-H322M; NCI-H322M, Non-Small Cell Lung Cancer, NCI one dose) was 0%, the inhibition at 10 µM (NCI-H522; NCI-H522, Non-Small Cell Lung Cancer, NCI one dose) was 4.71% and the inhibition at 10 µM (ACHN; ACHN, Renal cancer, NCI one dose) was 2.31%. The inhibition at 10 µM (M14; M14, Melanoma, NCI one dose) was 0% and the inhibition at 10 µM (OVCAR-4; OVCAR-4, Ovarian Cancer, NCI one dose) was 0%.

Source: paper PMC10504751, “Chalcone/1,3,4-Oxadiazole/Benzimidazole hybrids as novel anti-proliferative agents inducing apoptosis and inhibiting EGFR & BRAFV^600E” (BMC Chemistry, 2023)
